Results reported in patent publication US5545653A (priority 1995, dated 1996).
Values after ≈ are worked out from the molar mass of the structure shown.

Experiments:
Assay type in all cases: cell-based
[1] = system: RhV-14 (Rhinovirus); test: microbe, parasite or virus in culture; settings: Enterovirus; 120 hours at 32° C.; read-out: IC50 (50 percent inhibition of plaque formation), RhV-14
[2] = system: PV-1 (poliovirus); test: microbe, parasite or virus in culture; settings: Enterovirus C, 72 h, read-out: IC50 (50 percent inhibition of plaque formation), PV-1
[3] = system: CS-21C (Coxsackie virus); test: organism not typed; settings: 72 hours at 37° C.; read-out: IC50 (50 percent inhibition of plaque formation), CS-21C

CC(C)S(=O)(=O)n1c(N)nc2ccc(C(=O)c3cc(F)cc(F)c3)cc21 [Example 5]
IC50 [1]: 3.9 µg/mL (≈ 10.3 µM)

CC(C)S(=O)(=O)n1c(N)nc2ccc(C(=O)c3ccc(OC(F)(F)F)cc3)cc21 [Example 6]
IC50 [1]: 0.329 µg/mL (≈ 0.77 µM)

CC(C)S(=O)(=O)n1c(N)nc2ccc(C(=O)c3cccc(F)c3)cc21 [Example 3]
IC50 [1]: 2.14 µg/mL (≈ 5.92 µM)

CC(C)S(=O)(=O)n1c(N)nc2ccc(C(=O)c3cc(F)ccc3F)cc21 [Example 20]
IC50 [1]: 1.32 µg/mL (≈ 3.48 µM) | IC50 [2]: 0.19 µg/mL (≈ 0.501 µM)

CC(C)S(=O)(=O)n1c(N)nc2ccc(C(=O)c3ccccc3F)cc21 [Example 11]
IC50 [3]: 0.44 µg/mL (≈ 1.22 µM) | IC50 [2]: 1.7 µg/mL (≈ 4.7 µM)
